Results: US9636335B2, “Heteroaryl compounds as 5-HT4 receptor ligands” (Suven Life Sciences Ltd, priority 2011, dated 2017)
Where a name gives a salt, the structure may show the parent alone.

What was measured:
[1] = system: Male Wister rats; assay: Object recognition task model; format: in vivo; details: p.o., rat
Description: (§1) The cognition enhancing properties of compounds of this invention were estimated by using this model.
Male Wister rats (230-280 grams) were used as experimental animals. Four animals were housed in each cage. […] Also the rats were habituated to individual arenas for 1 hour in the absence of any objects.
One group of 12 rats received vehicle (1 mL/Kg) orally and another set of animals received compound of the formula (I) either orally or i.p., before one hour of the familiar (T1) and choice trial (T2).
The experiment was carried out in a 50×50×50 cm open field made up of acrylic. In the familiarization phase, (T1), the rats were placed individually in the open field for 3 minutes, in which two identical objects (plastic bottles, 12.5 cm height×5.5 cm diameter) covered in yellow masking tape alone (a1 and a2) were positioned in two adjacent corners, 10 cms from the walls. After 24 hours of the (T1) trial for long-term memory test, the same rats were placed in the same arena as they were placed in T1 trial. Choice phase (T2) rats were allowed to explore the open field for 3 minutes in presence of one familiar object (a3) and one novel object (b) (Amber color glass bottle, 12 cm high and 5 cm in diameter). Familiar objects presented similar textures, colors and sizes. During the T1 and T2 trial, explorations of each object (defined as sniffing, licking, chewing or having moving vibrissae whilst directing the nose towards the object at a distance of less than 1 cm) were recorded separately by stopwatch. […] T1 is the total time spent exploring the familiar objects (a1+a2). T2 is the total time spent exploring the familiar object and novel object (a3+b).

[2] = biological target: recombinant human 5-HT4 receptor (Homo sapiens (Human), UniProt Q13639); assay: Determination of EC50 values for 5-HT4 receptor (CHO cells, pCRE-Luc reporter); format: cell-based; details: CHO cells expressing human 5-HT4 receptor, luciferase activity, 4 hours incubation
recombinant human 5-HT4 receptor, sequence (Q13639 whole entry): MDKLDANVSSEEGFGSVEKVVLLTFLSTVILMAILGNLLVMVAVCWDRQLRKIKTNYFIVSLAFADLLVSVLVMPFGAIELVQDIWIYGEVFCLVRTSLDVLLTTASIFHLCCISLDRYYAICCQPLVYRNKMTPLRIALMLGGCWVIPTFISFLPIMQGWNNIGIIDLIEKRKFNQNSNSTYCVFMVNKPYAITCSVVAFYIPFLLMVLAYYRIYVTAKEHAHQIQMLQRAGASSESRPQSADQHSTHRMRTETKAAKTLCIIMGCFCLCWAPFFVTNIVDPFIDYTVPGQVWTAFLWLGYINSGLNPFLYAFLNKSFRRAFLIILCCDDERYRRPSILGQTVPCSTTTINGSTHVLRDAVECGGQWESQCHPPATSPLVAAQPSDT
Description: A stable CHO cell line expressing recombinant human 5-HT4 receptor and pCRE-Luc reporter system was used for cell-based assay. The assay offers a non-radioactive based approach to determine binding of a compound to GPCRs. In this specific assay, the level of intracellular cyclic AMP which is modulated by activation or inhibition of the receptor is measured. The recombinant cells harbor luciferase reporter gene under the control of cAMP response element.
The above cells were grown in 96 well clear bottom white plates in Hams F12 medium containing 10% fetal bovine serum (FBS). Prior to the addition of compounds or standard agonist, cells were serum starved overnight. Increasing concentrations of test compounds were added in OptiMEM medium to the cells. The incubation was continued at 37° C. in CO2 incubator for 4 hours. Medium was removed and cells were washed with phosphate buffered saline. The cells were lysed and luciferase activity was measured in a Luminometer. Luminescence units were plotted against the compound concentrations using Graphpad software.

[3] = Rodent pharmacokinetic study; format: in vivo, Male Wister rats; details: plasma
Description: Three to five animals were housed in each cage. […] Animals were fasted over night before oral dosing (p.o) and food pellets were allowed 2 hours post dosing, whereas intravenous dosing food and water were provided as ad libitum. Three rats were dosed with compounds of formula (I) (10 mg/kg) orally and intravenously (05 mg/kg).
At each time point blood was collected through jugular vein and immediately replenish with an equivalent volume of normal saline from freely moving rats. Collected blood was transferred into a labeled eppendr off containing 10 μL of heparin as anticoagulant. Typically blood samples were collected as following time points: Pre dose, 0.08 (only i.v.), 0.25, 0.5, 1, 2, 4, 6, 8, and 24 hours post dose (n=3). Blood was centrifuged at 4000 rpm for 10 minutes. Plasma was prepared and stored frozen at −20° C. until analysis.
Pharmacokinetic parameters Cmax, Tmax, AUCt, T1/2 and Bioavailability were calculated by non-compartmental model using standard non-compartmental model by using WinNonLin 5.0.1 or Phoenix WinNonlin 6.2 version Software package.

[4] = Rodent brain penetration study; details: male, Wistar, rat, po, 10 mg/kg
Description: Three animals were housed in each cage. Animals were given water and food ad libitum throughout the experiment, and maintained on a 12 hours light/dark cycle.
Brain penetration was determined in discrete manner in rats. […] After acclimatization the rats were grouped according to the weight in each group, 3 animals were kept in individual cage and allowed free access to food and water. At each time point (0.50, 1, and 2 hours) n=3 animals were used.
The compounds of formula (I) was suitably preformulated and administered orally at (free base equivalent) 10 mg/kg. Blood samples were removed via, cardiac puncture by using isoflurane anesthesia the animals were sacrificed to collect brain tissue. […] The concentrations of the NCE compound in plasma and Brain were determined using LC-MS/MS method.
Extent of brain-plasma ratio was calculated (Cb/Cp).

[5] = system: rats; assay: Radial arm maze, reversal of scopolamine induced amnesia; format: in vivo; details: p.o., rat
Description: as §1

[6] = Wistar/Male rat, 5 mg/kg, intravenous (bolus)
[7] = Wistar/Male rat, 10 mg/kg oral vs 5 mg/kg intravenous
[8] = Wistar/Male rat, 10 mg/kg, oral (gavage)
[9] = male, Wistar, rat, po, 10 mg/kg

Compound	Exploration time mean ± S.E.M, Familiar object ([1]; 3 mg/kg) [s]	Exploration time mean ± S.E.M, Novel object ([1]; 3 mg/kg) [s]	Inference ([1]; 3 mg/kg)	EC50 [2] [nM]	AUC(0-t) [3, 6] [ng·h/mL]	Cmax [3, 6] [ng/mL]	Tmax [3, 6] [min]	half-life [3, 6] [min]	bioavailability [3, 7] [%]	AUC(0-t) [3, 8] [ng·h/mL]	Cmax [3, 8] [ng/mL]	Tmax [3, 8] [min]	half-life [3, 8] [min]	Kp ([4]; brain homogenate and plasma)	also measured
Nc1c(Cl)cc(-c2nnc(C3CCN(C4CC4)CC3)o2)c2c1CCCO2.Nc1c(Cl)cc(-c2nnc(C3CCN(C4CC4)CC3)o2)c2c1CCCO2.O=C(O)/C=C/C(=O)O [Example 1, 6-Chloro-8-[5-(1-cyclopropyl-piperidin-4-yl)-[1,3,4]oxadiazol-2-yl]-chroman-5-ylamine hemi fumarate]	5.08 ± 0.1	13.80 ± 2.20	Active	28.5	–	–	–	–	–	–	–	–	–	–	–
COCCN1CCC(c2nnc(-c3cc(Cl)c(N)c4c3OCCC4)o2)CC1 [Example 8, 6-Chloro-8-{5-[1-(2-methoxy-ethyl)-piperidin-4-yl]-[1,3,4]oxadiazol-2-yl}-chroman-5-ylamine]	10.45 ± 1.162	17.59 ± 2.95	Active	15.6	1320 ± 527	1280 ± 239	4.8	61.8 ± 8.4	72 ± 22	1760 ± 89	918 ± 46	19.8 ± 8.4	60.6 ± 4.8	0.56 ± 0.08	–
CC(C)CCN1CCC(c2nnc(-c3cc(Cl)c(N)c4c3OCCC4)o2)CC1 [Example 9, 6-Chloro-8-{5-[1-(3-methyl-butyl)-piperidin-4-yl]-[1,3,4]oxadiazol-2-yl}-chroman-5-ylamine]	11.21 ± 2.18	16.47 ± 1.18	Active	2.4	836 ± 374	792 ± 111	4.8	82.8 ± 39.6	66 ± 21	1210 ± 941	412 ± 177	40.2 ± 14.4	89.4 ± 38.4	–	–
Nc1c(Cl)cc(-c2nnc(C3CCN(C4CCC4)CC3)o2)c2c1CCCO2 [Example 14, 6-Chloro-8-[5-(1-cyclobutyl-piperidin-4-yl)-[1,3,4]oxadiazol-2-yl]-chroman-5-ylamine]	–	–	–	1.3	773 ± 45	783 ± 124	4.8	73.2 ± 15.6	42 ± 10	645 ± 136	513 ± 125	15	57.6 ± 6.6	2.24 ± 0.09	Exploration time mean ± S.E.M, Familiar object ([1]; 1 mg/kg): 5.06 ± 1.32 s; Exploration time mean ± S.E.M, Novel object ([1]; 1 mg/kg): 12.68 ± 1.14 s; Inference ([1]; 1 mg/kg): Active; Reversal of Scopolamine Induced amnesia - Effective dose range [5]: 1-10 mg/kg, p.o.
Nc1c(Cl)cc(-c2nnc(C3CCN(CC4CCC4)CC3)o2)c2c1OCCO2 [Example 15, 6-Chloro-8-[5-(1-cyclobutylmethyl-piperidin-4-yl)-[1,3,4]oxadiazol-2-yl]-2,3-dihydro-benzo[1,4]dioxin-5-ylamine]	–	–	–	6.2	–	–	–	–	–	–	–	–	–	–	Exploration time mean ± S.E.M, Familiar object ([1]; 1 mg/kg): 12.03 ± 1.73 s; Exploration time mean ± S.E.M, Novel object ([1]; 1 mg/kg): 19.14 ± 3.02 s; Inference ([1]; 1 mg/kg): Active
Nc1c(Cl)cc(-c2nnc(C3CCN(C4CCC4)CC3)o2)c2c1OCCO2 [Example 16, 6-Chloro-8-[5-(1-cyclobutyl-piperidin-4-yl)-[1,3,4]oxadiazol-2-yl]-2,3-dihydro-benzo[1,4]dioxin-5-ylamine]	–	–	–	13.3	–	–	–	–	–	–	–	–	–	–	Exploration time mean ± S.E.M, Familiar object ([1]; 10 mg/kg): 8.03 ± 1.58 s; Exploration time mean ± S.E.M, Novel object ([1]; 10 mg/kg): 13.94 ± 1.76 s; Inference ([1]; 10 mg/kg): Active
CCOC(=O)N1CCC(N2CCC(c3nnc(-c4cc(Cl)c(N)c5c4OCCC5)o3)CC2)CC1 [Example 19, 4-[5-(5-Amino-6-chloro-chroman-8-yl)-[1,3,4]oxadiazol-2-yl]-[1,4′]bipiperidinyl-1′-carboxylic acid ethyl ester]	–	–	–	6.8	2370 ± 90	1860 ± 115	4.8	133 ± 13.8	101 ± 1	4814 ± 30	1760 ± 264	30	88.8 ± 10.8	–	Exploration time mean ± S.E.M, Familiar object ([1]; 10 mg/kg): 7.19 ± 0.65 s; Exploration time mean ± S.E.M, Novel object ([1]; 10 mg/kg): 13.21 ± 2.1 s; Inference ([1]; 10 mg/kg): Active
Nc1c(Cl)cc(-c2nnc(CCCN3CCCCC3)o2)c2c1CCCO2.O=C(O)C(O)C(O)C(=O)O [Example 20, 6-Chloro-8-[5-(3-piperidin-1-yl-propyl)-[1,3,4]oxadiazol-2-yl]-chroman-5-ylamine tartarate salt]	4.69 ± 0.79	11.04 ± 1.33	Active	104	867 ± 173	976 ± 305	4.8	48 ± 3.6	46 ± 9	790 ± 153	602 ± 35	15	61.8 ± 1.2	0.5 ± 0.07	–
Nc1c(Cl)cc(-c2nnc(CC3CCN(C4CCCC4)CC3)o2)c2c1CCCO2.O=C(O)C(=O)O [Example 21, 6-Chloro-8-[5-(1-cyclopentyl-piperidin-4-ylmethyl)-[1,3,4]oxadiazol-2-yl]-chroman-5-ylamine oxalate salt]	–	–	–	71.2	–	–	–	–	–	–	–	–	–	0.62 ± 0.05	AUC(0-t) ([3]; male, Wistar, rat, iv, 5 mg/kg): 876 ± 65 ng·h/mL; Cmax ([3]; male, Wistar, rat, iv, 5 mg/kg): 750 ± 14 ng/mL; Tmax ([3]; male, Wistar, rat, iv, 5 mg/kg): 4.8 min; half-life ([3]; male, Wistar, rat, iv, 5 mg/kg): 107 ± 25.8 min; AUC(0-t) [3, 9]: 1490 ± 72 ng·h/mL; Cmax [3, 9]: 553 ± 53 ng/mL; Tmax [3, 9]: 25.2 ± 7.2 min; bioavailability [3, 9]: 85 ± 4%; half-life [3, 9]: 94.2 ± 6.6 min
Nc1c(Cl)cc(-c2nnc(C3CCN(C4CCOCC4)CC3)o2)c2c1CCCO2.O=C(O)C(=O)O [Example 25, 6-Chloro-8-{5-[1-(tetrahydro-pyran-4-yl)-piperidin-4-yl]-[1,3,4]oxadiazol-2-yl}-chroman-5-ylamine oxalate salt]	5.93 ± 0.87	14.70 ± 2.34	Active	5.7	–	–	–	–	–	–	–	–	–	–	–
Nc1c(Cl)cc(-c2nnc(C3CCN(CC4CCOCC4)CC3)o2)c2c1CCCO2.O=C(O)C(=O)O [Example 26, 6-Chloro-8-{5-[1-(tetrahydro-pyran-4-ylmethyl)-piperidin-4-yl]-[1,3,4]oxadiazol-2-yl}-chroman-5-ylamine oxalate salt]	7.12 ± 1.44	14.42 ± 2.22	Active	18	–	–	–	–	–	–	–	–	–	–	–
CC(C)n1nc(-c2nnc(C3CCN(C4CCC4)CC3)o2)c2ccccc21 [Example 37, 3-[5-(1-Cyclobutyl-piperidin-4-yl)-[1,3,4]oxadiazol-2-yl]-1-isopropyl-1H-indazole]	–	–	–	–	–	–	–	–	–	–	–	–	–	–	Kp ([4]; in vivo): 5.68 ± 1.74
CC(C)n1nc(-c2nnc(C3CCN(C4CCOCC4)CC3)o2)c2ccccc21 [Example 48, 1-Isopropyl-3-{5-[1-(tetrahydro-pyran-4-yl)-piperidin-4-yl]-[1,3,4]oxadiazol-2-yl}-1H-indazole oxalate salt]	–	–	–	–	–	–	–	–	–	–	–	–	–	–	Kp ([4]; in vivo): 2.55 ± 0.32
